Test results: US9169241B2, “Quinolinyloxyphenylsulfonamides” (Max-Planck-Gesellschaft Zur Forderung der Wissenschaften …, priority 2009, dated 2015)
pIC50: −log10 of the molar value. Where two headings read alike, the source gives them in different places.

What was measured:
Assay type in all cases: cell-based
cells = test: Boyden chamber migration assay (Table VI); conditions: Homo sapiens, Hs-578T, 16 h, Hs578T cells; 16 h migration
Procedure: The Boyden chamber assay is based on a chamber of two medium-filled compartments separated by a microporous membrane of 8 μM (Cell culture insert 8.0 μM pore size, BD Biosciences, Bedford, Mass.). The boyden chamber migration assays were carried out according to the supplier's instructions. In general, 20000 cells are placed in the upper compartment with medium containing 0% FCS plus 0.1% BSA and are allowed to migrate 16 h through the pores of the membrane into the lower compartment, which is filled with cell culture medium containing 10% FCS as chemotactic agents. The cells remaining in the insert were removed with a cotton swab, and the cells on the bottom of the filter were fixed and counted. (Zhang Y X, et al. AXL is a potential target for therapeutic intervention in breast cancer progression. Cancer Res. 2008; 68:1905-15).

indicated cell line = test: Wound healing migration assay (Table IV); conditions: compounds at 12.5, 6.25, 3.125 μM, 48 h-72 h
Procedure: This method mimics cell migration during wound healing in vivo. The basic steps involve creating a “wound” in a cell monolayer, capturing the images at the beginning and at regular intervals during cell migration to close the wound, and comparing the images to quantify the migration rate of the cells. In detail, 150000 cell/24 well have been seeded and allowed to form a monolayer overnight. Subsequently a “wound” or “scratch” has been performed with a 1000 μl pipette tip. The STDV of wound size is normally below 10% at time point t0. The assay was stopped by fixation with 0.05% Crystal violet/20% methanol when control scratches were closed. The assay was terminated between 48 h and 72 h depending on the migration potential of the indicated cell line. The “wounds” were visualized with a Zeiss Axiovert S100 microscope (Carl Zeiss UK, Welwyn Garden City, UK). The tested compounds were used at 12.5 μM, 6.25, 3.125 μM and DMSO control. IC50 values have been calculated as 50% wound size in between t0 and t48 or t72.

tumor cell = test: Matrigel outgrowth assay/branching assay (Table Va)
Procedure: The Matrigel outgrowth assay is based on the ability of tumor cell to penetrate a solid gel of extracellular matrix proteins mimicking the metastasis formation in vivo. While cells with low invasive potential appear as roundish cell or cell cluster, cells with high invasive potential penetrate the Matrigel and form polymorphic structures. In detail 65 μl of Matrigel matrix (Matrigel™ Matrix, BD Biosciences, Bedford, Mass., USA) with a concentration of 3 mg/ml have been polymerized in 96 well plates for 1 h at 37° C. Subsequently 5000 cell/well were seeded into each well containing cell culture medium and indicated compound with concentrations of 3.125 μM, 1.56 μM and 0.78 μM as well as DMSO control. After 48 h, 72 h and 96 h images of cell were taken on an inverted microscope using a 5× objective (Zeiss Axiovert S100 microscope Carl Zeiss UK, Welwyn Garden City, UK). Only compound concentrations were total branching inhibition was evident were accounted as positive. Method was used as previously described, with some modifications (Thompson E W, et al. Association of increased basement membrane invasiveness with absence of estrogen receptor and expression of vimentin in human breast cancer cell lines. J Cell Physiol 1992; 150:534-44).

Hs578T [1] = test: Matrigel outgrowth assay/branching assay; conditions: Homo sapiens, Hs-578T; HS578T cell line; Table Ib; read-out: Total branching inhibition in Matrigel HS578T
How it was run: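 Read-out: microscopic images of invasive branching structures at 48 h, 72 h and 96 h. Cells sat on a 3 mg/ml Matrigel layer (set 1 h, 37° C) with compound at 3.125, 1.56 and 0.78 μM or DMSO. A concentration counts as positive only with complete branching inhibition.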

viable cells in culture = test: Cell viability assay at 10 μM (CellTiter-Glo, Table VII); conditions: compound 10 μM, 72 h;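 further: graded A 0-20%; B 21-40%; C 41-60%; D over 60% viable cells relative to DMSO control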
How it was run: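 Viable cell number was measured with the CellTiter-Glo Luminescent Cell Viability Assay (Promega), following the manufacturer's protocol, which quantifies ATP as a marker of metabolically active cells. In 96-well plates, 1000 cells/well in 100 μl medium were exposed to compound at 10 μM, or to DMSO control, for 72 h. Values were calculated relative to DMSO-control ATP.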

SF763 = test: Apoptosis assay (Cellomics, nucleus condensation); conditions: Table III, read-out: Apoptosis induction in SF763
From the text: (§1) The Cellomics BioApplication (Thermo Fischer Cellomics Products, Pittsburgh, Pa.) is an automated image analysis algorithm that provides detailed analysis of phenotypes related to apoptosis. As one of the most prominent characteristics of apoptotics cell a nucleus condensation takes place. This can be measured fluorescence signal intensity using a CCD camera on fully automated microscope system. The Cellomics system is able to quantify the fluorescence intensity per single nucleus and calculates the variation of signal intensity in each cell population. […] Additionally the number of detected cell decreases normally in apoptotic cell populations. In detail 5000 cell per 96 well were labeled with DNA intercalating dye (Hoechst 33342, Sigma, Steinheim, Germany) to visualize the nucleus in a fluorescence microscope under live conditions. The apoptosis assay was performed 24 h and 48 h after addition of compound at concentrations 12.5 μM, 6.25 μM, 3.125 μM, 1.56 μM, 0.78 μM, 0.39 μM as well as DMSO control for 48 h.

Hs578T [2] = test: Apoptosis assay (Cellomics, nucleus condensation); conditions: Homo sapiens, Hs-578T, Table III, read-out: Apoptosis induction in Hs578T
From the text: as §1

U138 = test: Apoptosis assay (Cellomics, nucleus condensation); conditions: Table III, read-out: Apoptosis induction in U138
From the text: as §1

SF126 = test: Apoptosis assay (Cellomics, nucleus condensation); conditions: Homo sapiens, SF-126, Table III, read-out: Apoptosis induction in SF126
From the text: as §1

C8161 = test: Apoptosis assay (Cellomics, nucleus condensation); conditions: Homo sapiens, Table III, read-out: Apoptosis induction in C8161
From the text: as §1

U118 = test: Apoptosis assay (Cellomics, nucleus condensation); conditions: Table III, read-out: Apoptosis induction in U118
From the text: as §1

[3] = Homo sapiens, C8161 cells, read-out: IC50 Wound healing Assay C8161
[4] = SF763 cells, read-out: IC50 Wound healing Assay SF763
[5] = Homo sapiens, C8161 cells, read-out: Total branching inhibition in Matrigel C8161
[6] = Homo sapiens, Hs-578T, Hs578T cells, read-out: Total branching inhibition in Matrigel Hs578T
[7] = U118 cells, read-out: Total branching inhibition in Matrigel U118
[8] = U138 cells, read-out: Total branching inhibition in Matrigel U138
[9] = Homo sapiens, HCT-116, HCT116 def, read-out: percentage (%) of viable cells HCT 116def
[10] = Homo sapiens, HCT-116, HCT116 wt, read-out: percentage (%) of viable cells HCT 116wt
[11] = Homo sapiens, HT-29, HT29, read-out: percentage (%) of viable cells HT29
[12] = Homo sapiens, NCI-H358, H358, read-out: percentage (%) of viable cells H358
[13] = Homo sapiens, NCI-H1650, H1650, read-out: percentage (%) of viable cells H1650
[14] = Homo sapiens, NCI-H1666, H1666, read-out: percentage (%) of viable cells H1666
[15] = Homo sapiens, NCI-H1975, H1975, read-out: percentage (%) of viable cells H1975
[16] = Homo sapiens, NCI-H1993, H1993, read-out: percentage (%) of viable cells H1993
[17] = Homo sapiens, A549, read-out: percentage (%) of viable cells A549
[18] = Homo sapiens, HCC827, read-out: percentage (%) of viable cells HCC827
[19] = Homo sapiens, SW480, read-out: percentage (%) of viable cells SW480
[20] = RKO, read-out: percentage (%) of viable cells RKO

Structure (SMILES)	pIC50 (cells)	pIC50 (indicated cell line; [3])	pIC50 (indicated cell line; [4])	pIC50 (tumor cell; [5])	pIC50 (tumor cell; [6])	pIC50 (tumor cell; [7])	pIC50 (tumor cell; [8])	pIC50 (Hs578T [1])	viability at 10 µM (viable cells in culture; [9]) [%]	viability at 10 µM (viable cells in culture; [10]) [%]	viability at 10 µM (viable cells in culture; [11]) [%]	viability at 10 µM (viable cells in culture; [12]) [%]	viability at 10 µM (viable cells in culture; [13]) [%]	viability at 10 µM (viable cells in culture; [14]) [%]	viability at 10 µM (viable cells in culture; [15]) [%]	viability at 10 µM (viable cells in culture; [16]) [%]	viability at 10 µM (viable cells in culture; [17]) [%]	viability at 10 µM (viable cells in culture; [18]) [%]	viability at 10 µM (viable cells in culture; [19]) [%]	viability at 10 µM (viable cells in culture; [20]) [%]	also measured
CN1CCN(CCCOc2ccc3nccc(Oc4ccc(NS(=O)(=O)c5ccccc5C(F)(F)F)cc4F)c3c2)CC1 [Example 85, N-(3-Fluoro-4-{6-[3-(4-methyl-piperazin-1-yl)-propoxy]-quinolin-4-yloxy}-phenyl)-2-trifluoromethyl-benzenesulfonamide]	≥ 5.30	≥ 4.90	4.30 to 4.90	≥ 5.30	≥ 5.30	≥ 5.30	4.30 to 5.30	≥ 5.00	21 to 40	0 to 20	21 to 40	21 to 40	21 to 40	41 to 60	21 to 40	0 to 20	41 to 60	0 to 20	0 to 20	0 to 20	pIC50 (SF763): ≥ 4.90; pIC50 (Hs578T [2]): ≥ 4.90; pIC50 (U138): ≥ 4.90; pIC50 (SF126): ≥ 4.90; pIC50 (C8161): ≥ 4.90; pIC50 (U118): 4.30 to 4.90
COc1cc2nccc(Oc3ccc(NS(=O)(=O)c4ccccc4C(F)(F)F)cc3F)c2cc1OCCCN1CCN(C)CC1 [Example 86, N-(3-Fluoro-4-{7-methoxy-6-[3-(4-methyl-piperazin-1-yl)-propoxy]-quinolin-4-yloxy}-phenyl)-2-trifluoromethyl-benzenesulfonamide]	≥ 5.30	4.30 to 4.90	4.30 to 4.90	≥ 5.30	≥ 5.30	≥ 5.30	4.30 to 5.30	≥ 5.00	21 to 40	21 to 40	0 to 20	0 to 20	21 to 40	41 to 60	21 to 40	0 to 20	> 60	41 to 60	21 to 40	21 to 40	pIC50 (SF763): ≥ 4.90; pIC50 (Hs578T [2]): ≥ 4.90; pIC50 (U138): ≥ 4.90; pIC50 (SF126): ≥ 4.90; pIC50 (C8161): ≥ 4.90; pIC50 (U118): ≥ 4.90
